Assay [1] has as its target T1, 5-hydroxytryptamine receptor 4 (Cavia porcellus, UniProt O70528). As to the kind of experiment: Binding affinity towards 5-HT4 receptor in striatum membranes of guinea-pig brain was evaluated. Type of assay: cell membranes, Membrane.
The target of assay [2] is T2, D(2) dopamine receptor (Rattus norvegicus, UniProt P61169). As to the kind of experiment: Binding affinity towards D2 receptor in rat was evaluated.
Assay [3] deals with T2, D(2) dopamine receptor. As to the kind of experiment: Binding affinity towards Dopamine receptor D2 in rat was evaluated.
For assay [4], the target named is T3, Serotonin 3 (5-HT3) receptor (Rattus norvegicus, UniProt P35563+Q9JJ16).
T3 sequence (P35563 whole entry): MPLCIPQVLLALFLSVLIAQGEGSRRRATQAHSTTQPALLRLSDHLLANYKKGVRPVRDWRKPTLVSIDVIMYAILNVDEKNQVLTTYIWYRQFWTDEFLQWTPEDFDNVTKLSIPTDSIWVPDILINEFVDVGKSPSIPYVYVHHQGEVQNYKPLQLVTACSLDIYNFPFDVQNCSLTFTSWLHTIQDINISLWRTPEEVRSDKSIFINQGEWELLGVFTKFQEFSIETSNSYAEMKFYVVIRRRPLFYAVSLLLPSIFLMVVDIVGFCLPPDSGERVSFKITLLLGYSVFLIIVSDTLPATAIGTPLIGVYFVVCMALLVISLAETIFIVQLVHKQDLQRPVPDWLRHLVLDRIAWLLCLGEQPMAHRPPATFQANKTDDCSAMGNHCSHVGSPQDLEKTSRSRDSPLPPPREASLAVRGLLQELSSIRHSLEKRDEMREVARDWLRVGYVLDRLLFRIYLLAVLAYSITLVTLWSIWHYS
T3 sequence (Q9JJ16 whole entry): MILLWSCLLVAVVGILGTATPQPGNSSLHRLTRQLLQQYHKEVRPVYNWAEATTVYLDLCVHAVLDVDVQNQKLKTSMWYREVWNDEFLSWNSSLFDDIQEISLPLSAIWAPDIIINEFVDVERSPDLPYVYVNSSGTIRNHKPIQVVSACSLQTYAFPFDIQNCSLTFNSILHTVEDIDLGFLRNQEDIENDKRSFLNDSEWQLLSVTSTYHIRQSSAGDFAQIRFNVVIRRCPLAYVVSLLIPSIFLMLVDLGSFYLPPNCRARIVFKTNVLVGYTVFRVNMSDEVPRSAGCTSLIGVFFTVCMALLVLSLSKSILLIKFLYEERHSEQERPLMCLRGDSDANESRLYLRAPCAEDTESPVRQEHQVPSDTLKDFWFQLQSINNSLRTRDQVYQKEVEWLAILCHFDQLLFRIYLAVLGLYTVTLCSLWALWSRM
Briefly: Binding affinity towards 5-HT3 receptor in rat was evaluated.

Assay [5] has as its target T1, 5-hydroxytryptamine receptor 4. As to the kind of experiment: Binding affinity towards 5-hydroxytryptamine 4 receptor in striatum membranes of guinea-pig brain was evaluated. In kind it is cell membranes, Membrane.
For assay [6], the target named is T3, Serotonin 3 (5-HT3) receptor. As to the kind of experiment: Binding affinity towards rat 5-hydroxytryptamine 3 receptor was evaluated. Type of assay: protein-complex assay.

Usually IC50 stands for the point on the concentration scale where inhibition reaches its midpoint. Lower therefore signals higher potency. The Ki is the dissociation constant of the complex between target and ligand, obtained from inhibition or displacement.

T1 sequence (O70528 whole entry): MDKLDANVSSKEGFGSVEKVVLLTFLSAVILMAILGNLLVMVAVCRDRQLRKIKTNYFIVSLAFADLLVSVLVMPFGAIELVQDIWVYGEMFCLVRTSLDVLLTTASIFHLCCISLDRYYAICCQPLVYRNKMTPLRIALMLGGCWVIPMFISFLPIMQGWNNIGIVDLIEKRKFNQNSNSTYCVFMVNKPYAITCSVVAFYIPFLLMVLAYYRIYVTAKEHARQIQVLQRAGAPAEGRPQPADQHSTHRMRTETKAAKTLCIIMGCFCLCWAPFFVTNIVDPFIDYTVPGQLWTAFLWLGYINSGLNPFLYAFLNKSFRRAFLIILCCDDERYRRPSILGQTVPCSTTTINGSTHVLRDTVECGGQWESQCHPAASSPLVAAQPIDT
T2 sequence (P61169 whole entry): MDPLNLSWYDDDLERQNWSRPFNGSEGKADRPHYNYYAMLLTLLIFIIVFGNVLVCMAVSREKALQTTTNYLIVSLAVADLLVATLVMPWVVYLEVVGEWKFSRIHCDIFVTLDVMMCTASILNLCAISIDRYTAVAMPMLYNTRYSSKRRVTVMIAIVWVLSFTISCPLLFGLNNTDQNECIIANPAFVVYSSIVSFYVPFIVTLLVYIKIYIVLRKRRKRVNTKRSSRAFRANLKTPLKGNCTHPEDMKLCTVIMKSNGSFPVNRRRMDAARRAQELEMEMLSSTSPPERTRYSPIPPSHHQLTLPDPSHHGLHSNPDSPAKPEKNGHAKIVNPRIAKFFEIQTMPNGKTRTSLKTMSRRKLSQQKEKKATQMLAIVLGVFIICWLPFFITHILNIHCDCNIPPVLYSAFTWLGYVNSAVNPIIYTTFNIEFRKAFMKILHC

For the molecule `COc1cc(N)c(Cl)cc1C(=O)NC1CC2CCC1N(C)C2` (centres undefined), the IC50 in assay [1] was above 1000 nM; at D(2) dopamine receptor [2], 1000 nM; on D(2) dopamine receptor [3] it was above 1000 nM; in assay [4] it was above 1000 nM; in assay [5], 1000 nM. The molecule also gave a Ki in assay [4] of 327 nM.

`COc1cc(N)c(Cl)cc1C(=O)OC1CC2CCC1CN2C` (stereo in doubt; anti) registered an IC50 at D(2) dopamine receptor [3] above 1000 nM. The Ki in assay [4] amounted to 5.19 nM; in assay [5], 82.6 nM.

On to `COc1cc(N)c(Cl)cc1C(=O)OC1CC2CCC1N(C)C2` (stereo in doubt; anti), for which the IC50 (at D(2) dopamine receptor [3]; in assay [5]) was above 1000 nM in each case. The molecule also returned a Ki in assay [4] of 13.8 nM.

For `COc1cc(N)c(Cl)cc1C(=O)NC1CC2CCC1CN2C` (stereo in doubt; anti), the affinity on D(2) dopamine receptor [3], expressed as Ki, was 130 nM. In addition, the values for the IC50 in assay [4] and in assay [5] were 17300 nM and above 1000 nM, respectively.

As for `COc1cc(N)c(Cl)cc1C(=O)OC1CC2CCC1CN2C` (stereo in doubt; syn), the values for the Ki in assay [1] and in assay [4] were 240 nM and 11.2 nM, respectively. The same molecule showed an IC50 on D(2) dopamine receptor [2] above 1000 nM.

In the case of `COc1cc(N)c(Cl)cc1C(=O)OC1CC2CCC1N(C)C2` (stereo in doubt; syn), the IC50 (in assay [1]; on D(2) dopamine receptor [2]) was above 1000 nM throughout. In assay [4], this molecule displayed an inhibition constant Ki of 192 nM.

`COc1cc(N)c(Cl)cc1C(=O)NC1CC2CCC1CN2C` (stereo in doubt; syn): the IC50 in assay [1] and in assay [4] was 1000 nM each time. The molecule also yielded a Ki at D(2) dopamine receptor [2] of 842 nM.

Take `CN1C2CCCC1CC(NC(=O)c1nn(C)c3ccccc13)C2` (centres undefined) [GRANISETRON]: the IC50 (in assay [1]; on D(2) dopamine receptor [2]) was above 1000 nM each time.

On to `CN1[C@@H]2CC[C@H]1C[C@@H](OC(=O)c1c[nH]c3ccccc13)C2` [TROPISETRON], for which the figures for the Ki in assay [6] and in assay [5] were 1.55 nM and 125 nM, respectively. At D(2) dopamine receptor [3], the IC50 is above 1000 nM.

For the origin of these results see ChEMBL document CHEMBL1135371, “Synthesis and pharmacology of isoquinuclidine derivatives as 5-HT(3) ligands” (Bioorg Med Chem Lett, 2002).
